Data as given in patent publication US10246515B2, “Methods of treating hedgehog-related diseases with an anti-LGR5 antibody” (Genentech, Inc., priority 2013, dated 2019).

What was measured:
basal cell carcinoma = test: Basal cell carcinoma in K14-CreER; Ptch1fl/fl; p53fl/fl mice treated with GDC-0449; format: in vivo
Procedure: Harvested skin from treated animals was processed for Hematoxylin and Eosin (H&E) staining using established protocols. Alternatively, backskin from treated animals was fixed over night in 4% paraformaldehyde/PBS solution, washed, incubated in 30% sucrose/PBS solution overnight, and embedded in frozen OCT. Sections were then cut at 8 um from the frozen blocks and stained for the apoptosis marker cleaved caspase 3 (1:1000), GFP (1:1000), or Keratin 5 (1:1000). Sections were counterstained with DAPI.

[1] = tested on: Superficial Basal Cell Carcinoma (BCC); test: DT cell ablation in Superficial Basal Cell Carcinoma (BCC), K14CreER/+; p53loxP/loxP; PtchloxP/loxP; LGR5DTReGFP/+ mice; H&E and immunofluorescent staining; format: in vivo; settings: 75 mg/kg GDC-0449 po BID for 38 days with Diphtheria Toxin 50 ug/kg every other day for the final 8 days, Lgr5DTR.EGFP mice (FIG. 4 A-B)
Procedure: K14^CreER/+; p53^loxP/loxP; Ptch^loxP/loxP; LGR5^DTReGFP/+ mice were generated by breeding p53^loxP/loxPPtch^loxP/loxP; LGR5^DTReGFP/+ mice with p53^loxP/loxP; Ptch^loxP/+; K14^CreER/−. Animals showing telltale signs of Superficial BCC disease such as loss of fur, scruffy coat, thickening of the ears or tail skin were put on study. Animals were typically placed on study at 7 weeks of age. K14^CreER/+; p53^loxP/loxP; Ptch^loxP/loxP; LGR5^DTReGFP/+ mice were treated with the regimes as follows. To test the effects of DT treatments on residual superficial BCC, mice were treated Vismodegib (GDC-0449) po bid at 75 mg/kg for 38 days with concomitant with Diphtheria Toxin (DT) at 50 ug/kg every other day for the final 8 days starting at […]. Control mice were treated with Vismodegib (GDC-0449) po bid at 75 mg/kg for 38 days concomitant with 200 uL IP saline for the final 8 days of treatment. In addition, animals showing signs of disease (listed above) were treated with saline or DT alone at 50 ug/kg every other day for 5 days to test the effect of single DT treatments.
Harvested skin from treated animals was processed for Hematoxylin and Eosin (H&E) staining using established protocols. Alternatively, backskin from treated animals was fixed over night in 4% paraformaldehyde/PBS solution, washed, incubated in 30% sucrose/PBS solution overnight, and embedded in frozen OCT. […]

CS(=O)(=O)c1ccc(C(=O)Nc2ccc(Cl)c(-c3ccccn3)c2)c(Cl)c1 [GDC-0449, 2-chloro-N-[4-chloro-3-(pyridin-2-yl)phenyl]-4-(methylsulfonyl)benzamide]
tumor regression (basal cell carcinoma; K14-CreER, Ptch1fl/fl, p53fl/fl mice, compared to untreated control mice (FIG. 2)): extensive tumor regression
residual disease (basal cell carcinoma; after 75 mg/kg GDC-0449 po BID for 56 days (FIG. 2 C-D)): still observed
tumor regression [1]: tumor regression
